For 30 compounds, IC50 results are on record in US20100292214A1, “Compounds with Antiparasitic Activity, Applications thereof to the Treatment of Infectious Diseases Caused by Apicomplexans” (commissariat a l'Energie Atomique, priority 2007, published 2010).

Structures can show the parent of a compound that is named as a salt.

For the first assay, the system named is asynchronous 3D7 chloroquine-sensitive P. falciparum infected red blood cells. Briefly: Labeled hypoxanthine incorporation assay (in vitro anti-malarial activity). The following applies: 3D7 chloroquine-sensitive strain, infected RBC, 48 h contact, [3H]-hypoxanthine incorporation; two independent experiments in duplicates; read-out: IC50 assessed on Plasmodium Falciparum. The class given is cell-based.
Regarding `C[C@@H](COC(=O)N1CCC(n2c(=O)[nH]c3ccccc32)CC1)N(Cc1ccccc1)Cc1ccc(Br)cc1` [Compound 116, S)-2-(benzyl(4-bromobenzyl)amino)propyl 4-(2-oxo-2,3-dihydro-1H-benzo[d]imidazol-1-yl)piperidine-1-carboxylate hydrochloride], the IC50 amounted to 2880 nM.

The assay is the same for the next values; noted with them: Plasmodium falciparum, 3D7, Erythrocyte, 3D7 chloroquine-sensitive strain, infected RBC, 48 h contact, [3H]-hypoxanthine incorporation; two independent experiments in duplicates; read-out: IC50 assessed on Plasmodium Falciparum.
As for `C[C@@H]1CC[C@H]2[C@@H](C)C(=O)O[C@@H]3O[C@@]4(C)CC[C@@H]1[C@]32OO4` [Artemisinine, reference compound], the IC50 came out at 28.7 nM.

In the case of `C[C@@H](COC(=O)N1CCC(n2c(=O)n(S(=O)(=O)c3cccc4cccnc34)c3ccccc32)CC1)N(Cc1ccccc1)Cc1ccccc1` [Compound 60, (S)-2-(dibenzylamino)propyl 4-(2-oxo-3-(quinolin-8-ylsulfonyl)-2,3-dihydro-1H-benzo[d]imidazol-1-yl)piperidine-1-carboxylate], the IC50 turned out to be 780 nM.

For `O=C(OCCN(Cc1ccccc1)Cc1ccc(OCc2ccccc2)cc1)N1CCC(n2c(=O)[nH]c3ccccc32)CC1` [Compound 100, 2-(benzyl(4-(benzyloxy)benzyl)amino)ethyl 4-(2-oxo-2,3-dihydro-1H-benzo[d]imidazol-1-yl)piperidine-1-carboxylate], the concentration for half-maximal inhibition (IC50) turned out to be 3150 nM.

Consider `O=C(OCCN(Cc1ccccc1)Cc1c(F)cccc1F)N1CCC(n2c(=O)[nH]c3ccccc32)CC1` [Compound 101, 2-(benzyl(2,6-difluorobenzyl)amino)ethyl 4-(2-oxo-2,3-dihydro-1H-benzo[d]imidazol-1-yl)piperidine-1-carboxylate], for which the IC50 amounted to 5370 nM.

Consider `C[C@@H](COC(=O)N1CCC(n2c(=O)[nH]c3ccccc32)CC1)N(Cc1ccccc1)Cc1ccco1` [Compound 102, (S)-2-(benzyl(furan-2-ylmethyl)amino)propyl 4-(2-oxo-2,3-dihydro-1H-benzo[d]imidazol-1-yl)piperidine-1-carboxylate], for which the IC50 amounted to 7470 nM.

For the compound `O=C(OCCN(Cc1ccccc1)Cc1cccc(OCc2ccccc2)c1)N1CCC(n2c(=O)[nH]c3ccccc32)CC1` [Compound 103, 2-(benzyl(3-(benzyloxy)benzyl)amino)ethyl 4-(2-oxo-2,3-dihydro-1H-benzo[d]imidazol-1-yl)piperidine-1-carboxylate], the half-maximal inhibitory concentration (IC50) is 3570 nM.

In the case of `O=C(OCCN(C/C=C/c1ccccc1)Cc1ccccc1)N1CCC(n2c(=O)[nH]c3ccccc32)CC1` [Compound 104, (E)-2-(benzyl(cinnamyl)amino)ethyl 4-(2-oxo-2,3-dihydro-1H-benzo[d]imidazol-1-yl)piperidine-1-carboxylate], the IC50 was determined as 4970 nM.

For the compound `CC(C)(C)OC(=O)N(Cc1ccccc1)[C@H](COC(=O)N1CCC(n2c(=O)[nH]c3ccccc32)CC1)Cc1ccccc1` [Compound 106, (S)-2-(benzyl(tert-butoxycarbonyl)amino)-3-phenylpropyl 4-(2-oxo-2,3-dihydro-1H-benzo[d]imidazol-1-yl)piperidine-1-carboxylate], the IC50 was determined as 828 nM.

As to `CC(C)[C@@H](COC(=O)N1CCC(n2c(=O)[nH]c3ccccc32)CC1)N(Cc1ccccc1)Cc1ccccc1` [Compound 107, (S)-2-(dibenzylamino)-3-methylbutyl 4-(1,2-dihydro-2-oxobenzo[d]imidazol-3-yl)piperidine-1-carboxylate], the IC50 turned out to be 2810 nM.

Take `CC(C)(C)C(COC(=O)N1CCC(n2c(=O)[nH]c3ccccc32)CC1)N(Cc1ccccc1)Cc1ccccc1` (stereo not drawn) [Compound 109, 2-(dibenzylamino)-3,3-dimethylbutyl 4-(1,2-dihydro-2-oxobenzo[d]imidazol-3-yl)piperidine-1-carboxylate]: the IC50 came to 2400 nM.

For `CC(C)(COC(=O)N1CCC(n2c(=O)[nH]c3ccccc32)CC1)N(Cc1ccccc1)Cc1ccccc1` [Compound 111, 2-(dibenzylamino)-2-methylpropyl 4-(1,2-dihydro-2-oxobenzo[d]imidazol-3-yl)piperidine-1-carboxylate], the IC50 is 2280 nM.

Consider `C[C@@H](COC(=O)N1CCC(n2c(=O)[nH]c3ccccc32)CC1)N(Cc1ccccc1)Cc1ccc([N+](=O)[O-])cc1` [Compound 113, (S)-2-(benzyl(4-nitrobenzyl)amino)propyl 4-(2-oxo-2,3-dihydro-1H-benzo[d]imidazol-1-yl)piperidine-1-carboxylate], for which the IC50 worked out at 2450 nM.

For `COc1ccc(CN(CCCOC(=O)N2CCC(n3c(=O)[nH]c4ccccc43)CC2)Cc2ccccc2)cc1` [Compound 117, 3-(benzyl(4-methoxybenzyl)amino)propyl 4-(2-oxo-2,3-dihydro-1H-benzo[d]imidazol-1-yl)piperidine-1-carboxylate hydrochloride], the IC50 was determined as 1870 nM.

Regarding `O=C(OCCN(Cc1ccccc1)Cc1cccc(Cl)c1)N1CCC(n2c(=O)[nH]c3ccccc32)CC1` [Compound 124, 2-(benzyl(3-chlorobenzyl)amino)ethyl 4-(2-oxo-2,3-dihydro-1H-benzo[d]imidazol-1-yl)piperidine-1-carboxylate hydrochloride], the IC50 turned out to be 3310 nM.

For the compound `C[C@@H](COC(=O)N1CCC(n2c(=O)[nH]c3ccccc32)CC1)N(Cc1ccccc1)Cc1cccc(Oc2ccccc2)c1` [Compound 127, (S)-2-(benzyl(3-phenoxybenzyl)amino)propyl 4-(2-oxo-2,3-dihydro-1H-benzo[d]imidazol-1-yl)piperidine-1-carboxylate hydrochloride], the IC50 stood at 2670 nM.

`C[C@@H](COC(=O)N1CCC(n2c(=O)[nH]c3ccccc32)CC1)N(Cc1ccccc1)Cc1ccc(Cl)cc1` [Compound 129, (S)-2-(benzyl(4-chlorobenzyl)amino)propyl 4-(2-oxo-2,3-dihydro-1H-benzo[d]imidazol-1-yl)piperidine-1-carboxylate hydrochloride]: the IC50 was determined as 3630 nM.

For `O=C(OCCN(Cc1ccccc1)Cc1cccc2ccccc12)N1CCC(n2c(=O)[nH]c3ccccc32)CC1` [Compound 130, 2-(benzyl(naphthalen-1-ylmethyl)amino)ethyl 4-(2-oxo-2,3-dihydro-1H-benzo[d]imidazol-1-yl)piperidine-1-carboxylate hydrochloride], the IC50 was determined as 3870 nM.

In the case of `O=C(OCCCN(Cc1ccccc1)Cc1cccnc1)N1CCC(n2c(=O)[nH]c3ccccc32)CC1` [Compound 134, 3-(benzyl(pyridin-3-ylmethyl)amino)propyl 4-(2-oxo-2,3-dihydro-1H-benzo[d]imidazol-1-yl)piperidine-1-carboxylate hydrochloride], the IC50 came to 1290 nM.

With `O=C(OCCCN(CCOCc1ccccc1)Cc1ccccc1)N1CCC(n2c(=O)[nH]c3ccccc32)CC1` [Compound 143, 3-(benzyl(2-(benzyloxy)ethyl)amino)propyl 4-(2-oxo-2,3-dihydro-1H-benzo[d]imidazol-1-yl)piperidine-1-carboxylate hydrochloride], the IC50 was 4270 nM.

On to `O=C(OCCCN(Cc1ccccc1)Cc1ccc(F)cc1)N1CCC(n2c(=O)[nH]c3ccccc32)CC1` [Compound 147, 3-(benzyl(4-fluorobenzyl)amino)propyl 4-(2-oxo-2,3-dihydro-1H-benzo[d]imidazol-1-yl)piperidine-1-carboxylate hydrochloride], for which the IC50 turned out to be 2220 nM.

With `O=C(OCCCN(CCCc1ccccc1)Cc1ccccc1)N1CCC(n2c(=O)[nH]c3ccccc32)CC1` [Compound 148, 3-(benzyl(3-phenylpropyl)amino)propyl 4-(2-oxo-2,3-dihydro-1H-benzo[d]imidazol-1-yl)piperidine-1-carboxylate hydrochloride], the half-inhibitory concentration (IC50) was found to be 4610 nM.

In the case of `COc1ccccc1CN(CCOC(=O)N1CCC(n2c(=O)[nH]c3ccccc32)CC1)Cc1ccccc1` [Compound 151, 2-(benzyl(2-methoxybenzyl)amino)ethyl 4-(2-oxo-2,3-dihydro-1H-benzo[d]imidazol-1-yl)piperidine-1-carboxylate], the IC50 is 4660 nM.

For the compound `CCCc1ccc(S(=O)(=O)N(c2ccccc2)C2CCN(C(=O)OC[C@H](C)N(Cc3ccccc3)Cc3ccccc3)CC2)cc1` [Compound 154, (S)-2-(dibenzylamino)propyl 4-(N-phenyl-4-propylphenylsulfonamido)piperidine-1-carboxylate], the IC50 is 1590 nM.

Turning to `COc1ccc(S(=O)(=O)N(c2ccccc2)C2CCN(C(=O)OC[C@H](Cc3ccccc3)N(Cc3ccccc3)Cc3ccccc3)CC2)cc1` [Compound 157, (S)-2-(dibenzylamino)-3-phenylpropyl 4-(N-phenyl-4-methoxyphenylsulfonamido)piperidine-1-carboxylate], the IC50 was 828 nM.

As for `C[C@@H](COC(=O)N1CCC(N(c2ccccc2)S(=O)(=O)c2ccc(C(F)(F)F)cc2)CC1)N(Cc1ccccc1)Cc1ccccc1` [Compound 158, (S)-2-(dibenzylamino)propyl 4-(N-phenyl-4-(trifluoromethyl)phenylsulfonamido)piperidine-1-carboxylate], the IC50 stood at 355 nM.

For the compound `C[C@@H](COC(=O)N1CCC(N(c2ccccc2)S(=O)(=O)c2cccc3ccccc23)CC1)N(Cc1ccccc1)Cc1ccccc1` [Compound 161, (S)-2-(dibenzylamino)propyl 4-(N-phenyl-naphthalen-1-ylsulfonamido)piperidine-1-carboxylate], the IC50 amounted to 290 nM.

As to `O=C(OC[C@H](Cc1ccccc1)N(Cc1ccccc1)Cc1ccccc1)N1CCC(N(c2ccccc2)S(=O)(=O)c2cccc3ccccc23)CC1` [Compound 162, (S)-2-(dibenzylamino)-3-phenylpropyl 4-(N-phenyl-naphthalen-1-ylsulfonamido)piperidine-1-carboxylate], the IC50 turned out to be 1330 nM.

Staying with this assay, now noted: Plasmodium falciparum, 3D7, Erythrocyte, read-out: IC50 assessed on Plasmodium Falciparum.
Regarding `C[C@H]1[C@H](OC(=O)CCC(=O)O)O[C@@H]2O[C@@]3(C)CC[C@H]4[C@H](C)CC[C@@H]1[C@@]24OO3` [Artesunate, reference compound], the IC50 stood at 9.7 nM.

For `CCN(CC)CCCC(C)Nc1ccnc2cc(Cl)ccc12` (stereo not drawn) [Chloroquine, reference compound], the IC50 worked out at 10.3 nM.

A word on the IC50: it is the concentration that inhibits the measured activity by half.
